Read-outs that look alike come from different tables or passages of the source.
Tests used:
[1] = tested on: Y2065H HCV 1b-377-neo replicon cells; experiment: FRET assay on Y2065H (Y > H) replicon cells; assay type: cell-based; conditions: for EC50: Hepatitis C virus
[2] = tested on: HCV 1b-377-neo replicon cells; experiment: HCV replicon FRET assay; assay type: cell-based; conditions: Hepatitis C virus
[3] = Alamar blue cytotoxicity (CC50) in Y > H replicon cells; assay type: cell-based; conditions: human
Experimental: (§1) At subsequent various times (typically 72 hours), 10% final volume Alamar blue (Cat#00-100, Trek Diagnostics, Cleveland, Ohio) was added to each well. The plates were returned to the incubator for 5 hours and then read in the Cytoflour (PE Biosystems) to determine Alamar blue conversion in each well as a measure of cellular toxicity. After reading the Alamar blue fluorescence following the manufacturers directions, plates were rinsed 2× with PBS and then used for FRET assay by the addition of 30 μl of the FRET peptide assay reagent (described above) per well. The plate was then placed into the Cytoflour 4000 instrument which had been set to 340 excite/490 emission, automatic mode for 20 cycles and the plate read in a kinetic mode. Typically, the signal to noise using an endpoint analysis after the reads was at least three-fold.
The assay was further adapted to accommodate titrations of compounds to determine EC50 and CC50 values.
(§2) To determine if the Y2065H change was necessary and sufficient to confer resistance to Compound A, the single mutation was generated in the HCV 1b-377-neo replicon. […] To further verify this, colonies formed in the absence of Compound A were isolated and expanded for both the wild-type and Y2065H clones. Sensitivity of these cells to Compound A was then examined using the FRET assay.

[4] = tested on: Compound A-r replicon cells; experiment: FRET assay on selected Compound A-r replicon cells; assay type: cell-based, HCV; conditions: judged by the FRET assay; cells selected with Compound A 5-6 weeks
Experimental: HCV 1b-377-neo replicon cells were plated in 100-mm plates with ˜25% confluence after 24 hour seeding. Compound A (prepared by the procedure described in WO04/014852, published Feb. 19, 2004) was added at the final concentrations of 5, 10 and 20 μM in the presence of G418. Wild type replicon cells 15 in the absence of the compound were used as a control. After 5-6 weeks, both wt replicon cells and selected cells were tested for their sensitivity to Compound A. In addition, cell lines derived from individual colonies from different concentrations of selective Compound A were also isolated, expanded and tested. In the initial test, approximately 60-fold resistance, judged by the FRET assay, was observed between wt replicon cells and selected replicon cells (designated as Compound A-r replicon cells).

[5] = Alamar blue cytotoxicity (CC50) in replicon cells; assay type: cell-based; conditions: human, wild-type HCV 1b-377-neo replicon cells
Experimental: as §1
Compound analysis depended upon the quantification of the relative HCV replicon inhibition and the relative cytotoxicity values. To calculate cytotoxicity values, the average alamar blue fluorescence signals from the control wells in row 11 were set as 100% non-toxic. The individual signals in each of the compound test wells were then divided by the average control signal and multiplied by 100% to determine […]. […]

[6] = tested on: wild-type HCV 1b-377-neo replicon; experiment: Colony formation, wild-type replicon RNA in Huh-7 cells; assay type: cell-based; conditions: 2 μM Compound A
Text: as §2

[7] = tested on: Y2065H HCV 1b-377-neo replicon; experiment: Colony formation, Y2065H replicon RNA in Huh-7 cells; assay type: cell-based; conditions: Y > H RNA transfected, 2 μM Compound A, 3 weeks G418 selection
Text: as §2

[8] = tested on: HCV replicon; experiment: Combination studies in HCV replicon system (FRET, method of Chou); assay type: cell-based; conditions: for combination response: in combination with Example 3, replicon cells, 72 hours
Experimental: Since clinical drug resistance often develops in viral infections following single-agent therapies, there is a need to assess the additive, antagonistic, or synergistic properties of combination therapies. […] Drugs were tested at eleven concentrations each, diluted in DMSO by 3-fold dilutions. The highest concentration used for the four HCV inhibitors was 0.1 μM for Example 3 and 20 μM for the three other HCV antivirals. […] The drugs were tested as monotherapies and in combination with Example 3 at various concentration ratios. Cells were exposed to compounds for 72 hours and the amount of HCV inhibition was then determined using the FRET assay. The potential cytotoxicities of these combined agents were also analyzed in parallel by Alamar blue staining. The degree of antagonism or synergy was determined over a range of drug concentrations, and the combination response curves were fit to assess the antiviral effects of the drug treatment combinations. The concentration ratios were analyzed using the method of Chou. Table 5 reports the combination indices (CI) and the asymptotic confidence intervals at the different concentration ratios. All combination indices were tested for departure from additivity using isobologram methods.

[9] = tested on: HCV; conditions: HCV therapy, Poynard et al. 1998; cited from earlier work
[10] = Wild-type replicon cells, FRET assay, read-out: EC50
[11] = monotherapy, 72 hours, FRET assay, read-out: EC50 in monotherapy
[12] = combined with Example 3, molar ratio 1:1
[13] = combined with Example 3, molar ratio 1:2.5
[14] = combined with Example 3, molar ratio 2.5:1
[15] = HCV replicon, read-out: Activity (EC50)

C[C@H](NC(=O)OCc1ccccc1)C(=O)Nc1ccc(C2S/C(=N\c3cccc(F)c3)N(Cc3ccco3)C2=O)cc1 (some centres unmarked) [Compound A, reference compound]
EC50 [1]: > 5000 nM
EC50 [2, 10]: 1500 nM
CC50 at 72 h [3]: > 5000 nM
resistance between wt replicon cells and selected replicon cells [4]: approximately 60 fold
CC50 at 72 h [5]: > 5000 nM
Number of colonies ([6]; Wild-type RNA transfected, 3 weeks G418 selection): 3
reduction in colony number ([6]; wild-type replicon RNA): 95%
Number of colonies [7]: 10

C=CC1CC1(NC(=O)[C@@H]1C[C@@H](Oc2cc(-c3ccccc3)nc3cc(OC)ccc23)CN1C(=O)C(NC(=O)OC(C)(C)C)C(C)(C)C)C(=O)O (some centres unmarked) [protease inhibitor]
EC50 [2, 11]: 330 nM
CI at HCV inhibition of: 75% [8, 12]: 0.96 +/− 0.38
CI at HCV inhibition of: 90% [8, 12]: 0.91 +/− 0.55
CI at HCV inhibition of: 95% [8, 12]: 0.88 +/− 0.69
Overall Result [8, 12]: Additive
CI at HCV inhibition of: 50% ([8]; combined with Example 3, molar ratio 1:1 (first number Example 3)): 1.05 +/− 0.29
CI at HCV inhibition of: 75% [8, 13]: 0.78 +/− 0.22
CI at HCV inhibition of: 90% [8, 13]: 0.76 +/− 0.33
CI at HCV inhibition of: 95% [8, 13]: 0.75 +/− 0.43
Overall Result [8, 13]: Synergistic/Additive
CI at HCV inhibition of: 50% ([8]; combined with Example 3, molar ratio 1:2.5 (first number Example 3)): 0.82 +/− 0.17
CI at HCV inhibition of: 75% [8, 14]: 0.88 +/− 0.27
CI at HCV inhibition of: 90% [8, 14]: 0.81 +/− 0.40
CI at HCV inhibition of: 95% [8, 14]: 0.77 +/− 0.49
Overall Result [8, 14]: Additive
CI at HCV inhibition of: 50% ([8]; combined with Example 3, molar ratio 2.5:1 (first number Example 3)): 0.97 +/− 0.22
combination response [8]: additive response

alpha-interferon and ribavirin
sustained efficacy [9]: 40 % of patients

O=C(Nc1ccc(/C=C/c2ccc(NC(=O)[C@@H]3CCCN3C(=O)Cc3ccccc3)cc2)cc1)[C@@H]1CCCN1C(=O)Cc1ccccc1 [Example 3]
EC50 [1]: > 5000 nM
window of resistance in Y2065H cells as compared to wild-type cells ([1]; Y2065H vs wild-type cells): > 100 fold
EC50 [2, 15]: 0.1 to 90 nM
EC50 [2, 10]: < 50 nM
EC50 [2, 11]: < 50 nM
CC50 at 72 h [3]: > 5000 nM
combination response [8]: no significant drug antagonism
CC50 at 72 h [5]: > 5000 nM

CN(C)c1ccc(C(=O)N2CCC[C@H]2C(=O)Nc2ccc(/C=C/c3ccc(NC(=O)[C@@H]4CCCN4C(=O)C4CCC4)cc3)cc2)cc1 [Example 92]
EC50 [2, 15]: 0.1 to 90 nM

O=C(Nc1ccc(/C=C/c2ccc(NC(=O)[C@@H]3CCCN3C(=O)c3cccc4c3Cc3ccccc3-4)cc2)cc1)[C@@H]1CCCN1C(=O)c1cccc2c1Cc1ccccc1-2 [Example 165]
EC50 [2, 15]: 1000 to 10000 nM

O=C(Nc1ccc(/C=C/c2ccc(NC(=O)[C@@H]3CCCN3C(=O)c3ccccc3NCc3ccco3)cc2)cc1)[C@@H]1CCCN1C(=O)c1ccccc1NCc1ccco1 [Example 170]
EC50 [2, 15]: 100 to 1000 nM

[N-]=[N+]=Nc1ccc(C(=O)N2CCC[C@H]2C(=O)Nc2ccc(/C=C/c3ccc(NC(=O)[C@@H]4CCCN4C(=O)c4ccc(N=[N+]=[N-])cc4)cc3)cc2)cc1 [Example 60]
EC50 [2, 15]: 1000 to 10000 nM

CC(C)C(=O)N1CCC[C@H]1C(=O)Nc1ccc(/C=C/c2ccc(NC(=O)[C@@H]3CCCN3C(=O)C(C)C)cc2)cc1 [Example 39]
EC50 [2, 15]: 100 to 1000 nM

NCCCCC(N)C(=O)N1CCC[C@H]1C(=O)Nc1ccc(/C=C/c2ccc(NC(=O)[C@@H]3CCCN3C(=O)Cc3ccccc3)cc2)cc1 (some centres unmarked) [Example 273]
EC50 [2, 15]: 1000 to 10000 nM

CC(C)NC(=O)N1CCC[C@H]1C(=O)Nc1ccc(/C=C/c2ccc(NC(=O)[C@@H]3CCCN3C(=O)NC(C)C)cc2)cc1 [Example 285]
EC50 [2, 15]: 100 to 1000 nM

Reference: US8143288B2, “Inhibitors of HCV replication” (priority 2005, dated 2012)
